{"source": "patent US5912183A", "about": "“Peptide inhibitors of mitogenesis and motogenesis” (Pharmacia & Upjohn S.p.A., priority 1993, dated 1999)", "key": {"[1]": {"molecular_target": "T1, binding of p85 to HGF/SF receptor (Bos taurus, UniProt P23727)", "T1 construct": "made in house; host or cells: Sf9 insect cells (baculovirus), for both p85 and the receptor", "T1 sequence (P23727 whole entry)": "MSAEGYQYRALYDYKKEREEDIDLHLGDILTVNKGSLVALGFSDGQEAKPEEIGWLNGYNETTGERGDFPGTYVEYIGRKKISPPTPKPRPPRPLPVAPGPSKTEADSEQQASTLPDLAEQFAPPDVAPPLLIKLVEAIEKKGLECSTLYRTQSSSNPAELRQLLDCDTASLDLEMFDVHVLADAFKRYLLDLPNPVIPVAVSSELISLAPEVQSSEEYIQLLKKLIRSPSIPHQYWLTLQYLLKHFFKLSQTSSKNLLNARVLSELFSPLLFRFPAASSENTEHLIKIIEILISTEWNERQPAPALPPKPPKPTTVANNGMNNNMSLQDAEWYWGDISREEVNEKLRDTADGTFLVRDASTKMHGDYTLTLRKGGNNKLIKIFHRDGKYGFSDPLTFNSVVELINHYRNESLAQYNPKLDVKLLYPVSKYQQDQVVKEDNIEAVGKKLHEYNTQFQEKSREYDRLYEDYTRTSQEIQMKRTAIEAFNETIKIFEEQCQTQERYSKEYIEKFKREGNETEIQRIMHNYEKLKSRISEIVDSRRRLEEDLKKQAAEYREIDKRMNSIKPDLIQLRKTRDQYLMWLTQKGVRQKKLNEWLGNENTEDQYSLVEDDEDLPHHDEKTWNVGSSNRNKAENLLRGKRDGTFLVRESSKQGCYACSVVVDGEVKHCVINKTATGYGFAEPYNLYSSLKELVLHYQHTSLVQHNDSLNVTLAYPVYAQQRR", "assay": "Competition of phosphopeptides with p85 for association with immobilized recombinant HGF/SF receptor (in vitro kinase assay readout)", "design": "species or system human", "outline": "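Sf9 lysates expressing p85 were pre-incubated 1 h at 4°C with phosphopeptides (10 μM; also 10 nM, 100 nM, 1 μM), then bound to immunoprecipitated baculovirus-expressed receptor pre-phosphorylated with 10 μM cold ATP. Bound p85 was detected by in vitro kinase labelling with [γ-32P]ATP, 15 min at 25°C, and SDS-PAGE.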"}, "[2]": {"system": "binding of PI 3-kinase holoenzyme to HGF/SF receptor", "assay": "Competition of phosphopeptides with PI 3-kinase holoenzyme (A549 cytosolic extracts) for association with recombinant HGF/SF receptor (PI 3-kinase activity assay)", "design": "species or system human", "details": "summary statement in the description", "experimental": "FIG. 3. Inhibition of binding of PI 3-kinase holoenzyme to HGF/SF receptor by tyrosine-phosphorylated peptides. The phosphopeptides which efficiently out-competed p85 (FIG. 1) were assayed for the ability to interfere with binding of the PI 3-kinase holoenzyme to the HGF/SF receptor. Cytosolic extracts from three days-starved A549 cells were pre-incubated with each of the phosphopeptides (10 μM) prior to incubation with the immobilized recombinant HGF/SF receptor. The presence of receptor-associated PI 3-kinase in the immunocomplexes was determined by PI 3-kinase activity assay, as described in Materials and Methods of Example 4. The position of the phosphatidylinositol-3-phosphate (PIP) product of the PI 3-kinase reaction is indicated.\nIn vitro association experiments. Sf9 cells expressing the recombinant HGF/SF receptor (approximately 4×10^6 cells/point) were lysed 36 hours after infection in buffer A (10 mM Tris-HCl buffer pH 7.5, 10% glycerol, 1% Triton X-100, 150 mM NaCl, 5 mM EDTA), supplemented with 0.2 mM phenyl-methylsulfonyl fluoride, 1 μg/ml leupeptin, 0.1 TIU/ml aprotinin and 1 μg/ml pepstatin. […]\nThe presence of the p85 subunit of the PI 3-kinase in the receptor immunoprecipitate was determined by: i) labelling of the receptor and associated proteins with [γ-^32 P]ATP by in vitro kinase assay; ii) Western immunoblotting; iii) PI 3-kinase activity assay. […]"}}, "note": "Residues, ends and D or L forms follow the SMILES beside them.", "data": [{"smiles": "CSCC[C@H](NC(=O)[C@@H](NC(=O)[C@H](CCC(=O)O)NC(=O)[C@@H](N)Cc1ccc(OP(=O)(O)O)cc1)C(C)C)C(=O)N[C@@H](CC(C)C)C(=O)N[C@@H](CCCCN)C(=O)N[C@@H](CS)C(=O)N[C@@H](Cc1c[nH]c2ccccc12)C(=O)O", "note": "[H-Tyr*-Glu-Val-Met-Leu-Lys-Cys-Trp-OH] (HELM PEPTIDE1{[N[C@@H](Cc1ccc(OP(=O)(O)O)cc1)C(=O)[*:2]].E.V.M.L.K.C.W}$$$$V2.0)", "values": [{"measurement": "Inhibition of binding of p85 to HGF/SF receptor", "setting": "[1]; phosphopeptide 10 μM, p85 from Sf9 lysates, FIG. 1", "value": "efficiently outcompeted p85"}, {"measurement": "Efficiency at outcompeting p85 (relative affinity for p85)", "setting": "[1]; phosphopeptides at 10 nM, 100 nM, 1 μM, FIG. 2, rank order SEQ. ID NO: 19, then 22, 20, 18", "value": "highest"}, {"measurement": "Binding to PI 3-kinase", "setting": "[2]", "value": "capable of binding to PI 3-kinase"}]}]}
